Laboratory results from PubChem BioAssay (NCI).
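Cultured in 96-well plates, cells were exposed to test compound for 48 hours across five concentrations. Definition used: TGI = concentration required for complete inhibition of growth.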

Assays:
Assay in all cases: NCI tumour cell line growth inhibition, 48 h
KM12 colon = system: KM12 colon
SNB-19 CNS = system: SNB-19 CNS
OVCAR-8 ovarian = system: OVCAR-8 ovarian
NCI-H522 lung = system: NCI-H522 lung
LOX IMVI melanoma = system: LOX IMVI melanoma
SK-MEL-5 melanoma = system: SK-MEL-5 melanoma
ACHN renal = system: ACHN renal
A549 NSCLC = system: A549 NSCLC
HCC-2998 colon = system: HCC-2998 colon
CCRF-CEM leukemia = system: CCRF-CEM leukemia
MCF7 breast = system: MCF7 breast
RPMI-8226 leukemia = system: RPMI-8226 leukemia
NCI-H23 lung = system: NCI-H23 lung
SK-MEL-2 melanoma = system: SK-MEL-2 melanoma
DU-145 prostate = system: DU-145 prostate
OVCAR-4 ovarian = system: OVCAR-4 ovarian
NCI-H460 lung = system: NCI-H460 lung
NCI/ADR-RES ovarian = system: NCI/ADR-RES ovarian
HOP-92 NSCLC = system: HOP-92 NSCLC
COLO 205 colon = system: COLO 205 colon
K-562 leukemia = system: K-562 leukemia
MOLT-4 leukemia = system: MOLT-4 leukemia
MDA-MB-435 = system: MDA-MB-435
UO-31 renal = system: UO-31 renal
MALME-3M melanoma = system: MALME-3M melanoma
SW-620 colon = system: SW-620 colon
HT29 colon = system: HT29 colon
U251 CNS = system: U251 CNS
SK-OV-3 ovarian = system: SK-OV-3 ovarian
M14 melanoma = system: M14 melanoma
TK-10 renal = system: TK-10 renal
SK-MEL-28 melanoma = system: SK-MEL-28 melanoma
UACC-257 melanoma = system: UACC-257 melanoma
SR leukemia = system: SR leukemia
EKVX NSCLC = system: EKVX NSCLC
CAKI-1 renal = system: CAKI-1 renal
HCT-15 colon = system: HCT-15 colon
786-0 renal = system: 786-0 renal
OVCAR-5 ovarian = system: OVCAR-5 ovarian
PC-3 prostate = system: PC-3 prostate
UACC-62 melanoma = system: UACC-62 melanoma
SNB-75 CNS = system: SNB-75 CNS
HS 578T breast = system: HS 578T breast
HCT-116 colon = system: HCT-116 colon
MDA-MB-231 breast = system: MDA-MB-231 breast
RXF 393 renal = system: RXF 393 renal
SN12C renal = system: SN12C renal
SF-268 CNS = system: SF-268 CNS
SF-295 CNS = system: SF-295 CNS
NCI-H226 lung = system: NCI-H226 lung
IGROV1 ovarian = system: IGROV1 ovarian
T-47D breast = system: T-47D breast
SF-539 CNS = system: SF-539 CNS
A498 renal = system: A498 renal
BT-549 breast = system: BT-549 breast
OVCAR-3 ovarian = system: OVCAR-3 ovarian
HOP-62 NSCLC = system: HOP-62 NSCLC

Question: What does the source list for `C=C1C(=O)O[C@H]2C1C[C@@H](O)[C@@]1(C)OC1CC[C@@]1(C)O[C@H]21` (stereo not given in full)?
Answer: TGI (KM12 colon): 53.2 µM; TGI (SNB-19 CNS): > 100 µM; TGI (OVCAR-8 ovarian): > 100 µM; TGI (NCI-H522 lung): 20 µM; TGI (LOX IMVI melanoma): 27.5 µM; TGI (SK-MEL-5 melanoma): 29.6 µM; TGI (ACHN renal): 27 µM; TGI (A549 NSCLC): > 100 µM; TGI (HCC-2998 colon): 30.7 µM; TGI (CCRF-CEM leukemia): 23.1 µM; TGI (MCF7 breast): 29 µM; TGI (RPMI-8226 leukemia): 32.1 µM; TGI (NCI-H23 lung): 37.4 µM; TGI (SK-MEL-2 melanoma): 47.1 µM; TGI (DU-145 prostate): > 100 µM; TGI (OVCAR-4 ovarian): 30.3 µM; TGI (NCI-H460 lung): > 100 µM; TGI (NCI/ADR-RES ovarian): 64 µM; TGI (HOP-92 NSCLC): 32.6 µM; TGI (COLO 205 colon): 25.8 µM; TGI (K-562 leukemia): 32.5 µM; TGI (MOLT-4 leukemia): 24.8 µM; TGI (MDA-MB-435): 60 µM; TGI (UO-31 renal): 32.5 µM; TGI (MALME-3M melanoma): 29.2 µM; TGI (SW-620 colon): 38.5 µM; TGI (HT29 colon): 98.9 µM; TGI (U251 CNS): > 100 µM; TGI (SK-OV-3 ovarian): > 100 µM; TGI (M14 melanoma): 31.3 µM; TGI (TK-10 renal): 35.3 µM; TGI (SK-MEL-28 melanoma): 38.8 µM; TGI (UACC-257 melanoma): 42.3 µM; TGI (SR leukemia): 39.8 µM; TGI (EKVX NSCLC): 36 µM; TGI (CAKI-1 renal): 34.1 µM; TGI (HCT-15 colon): 37.9 µM; TGI (786-0 renal): 40.9 µM; TGI (OVCAR-5 ovarian): 63.9 µM; TGI (PC-3 prostate): 83.9 µM; TGI (UACC-62 melanoma): 31.4 µM; TGI (SNB-75 CNS): > 100 µM; TGI (HS 578T breast): 98.8 µM; TGI (HCT-116 colon): 34.3 µM; TGI (MDA-MB-231 breast): 40.7 µM; TGI (RXF 393 renal): 34.4 µM; TGI (SN12C renal): 42.4 µM; TGI (SF-268 CNS): > 100 µM; TGI (SF-295 CNS): > 100 µM

Question: `COC(=O)CP1(=O)OC2C(C3CCC2(C)C3(C)C)N1c1cc(C(F)(F)F)cc(C(F)(F)F)c1` (stereo not given) was tested. Which TGI (KM12 colon) did it give?
Answer: 54.7 µM

Question: What about the TGI (SNB-19 CNS) of the same compound?
Answer: > 100 µM

Question: What about the TGI (OVCAR-8 ovarian) of the same compound?
Answer: > 100 µM

Question: And the TGI (LOX IMVI melanoma)?
Answer: 49 µM

Question: What about the TGI (SK-MEL-5 melanoma) of the same compound?
Answer: > 100 µM

Question: What about the TGI (ACHN renal) of the same compound?
Answer: > 100 µM

Question: What about the TGI (A549 NSCLC) of the same compound?
Answer: > 100 µM

Question: And the TGI (HCC-2998 colon)?
Answer: 55.2 µM

Question: What about the TGI (NCI-H226 lung) of the same compound?
Answer: 71.7 µM

Question: And the TGI (MCF7 breast)?
Answer: > 100 µM

Question: What about the TGI (RPMI-8226 leukemia) of the same compound?
Answer: 42.5 µM

Question: And the TGI (NCI-H23 lung)?
Answer: 86.3 µM

Question: And the TGI (SK-MEL-2 melanoma)?
Answer: 46.4 µM

Question: And the TGI (DU-145 prostate)?
Answer: > 100 µM

Question: And the TGI (OVCAR-4 ovarian)?
Answer: > 100 µM

Question: What about the TGI (NCI-H460 lung) of the same compound?
Answer: 86.2 µM

Question: What about the TGI (NCI/ADR-RES ovarian) of the same compound?
Answer: 55.9 µM

Question: What about the TGI (IGROV1 ovarian) of the same compound?
Answer: > 100 µM

Question: And the TGI (COLO 205 colon)?
Answer: 49.1 µM

Question: What about the TGI (K-562 leukemia) of the same compound?
Answer: 68.3 µM

Question: What about the TGI (MOLT-4 leukemia) of the same compound?
Answer: 59 µM

Question: And the TGI (MDA-MB-435)?
Answer: 60.6 µM

Question: And the TGI (UO-31 renal)?
Answer: > 100 µM

Question: What about the TGI (MALME-3M melanoma) of the same compound?
Answer: 58.1 µM

Question: What about the TGI (SW-620 colon) of the same compound?
Answer: 88.3 µM

Question: What about the TGI (HT29 colon) of the same compound?
Answer: > 100 µM

Question: What about the TGI (U251 CNS) of the same compound?
Answer: > 100 µM

Question: What about the TGI (T-47D breast) of the same compound?
Answer: 71 µM

Question: And the TGI (SF-539 CNS)?
Answer: 45.8 µM

Question: What about the TGI (SK-OV-3 ovarian) of the same compound?
Answer: 80.5 µM

Question: What about the TGI (A498 renal) of the same compound?
Answer: > 100 µM

Question: And the TGI (M14 melanoma)?
Answer: > 100 µM

Question: And the TGI (TK-10 renal)?
Answer: 75.2 µM

Question: What about the TGI (SK-MEL-28 melanoma) of the same compound?
Answer: > 100 µM

Question: And the TGI (BT-549 breast)?
Answer: 71.8 µM

Question: And the TGI (UACC-257 melanoma)?
Answer: > 100 µM

Question: And the TGI (SR leukemia)?
Answer: 62.6 µM

Question: And the TGI (EKVX NSCLC)?
Answer: > 100 µM

Question: And the TGI (CAKI-1 renal)?
Answer: 83.1 µM

Question: And the TGI (HCT-15 colon)?
Answer: 97.5 µM

Question: And the TGI (786-0 renal)?
Answer: 41.7 µM

Question: And the TGI (OVCAR-5 ovarian)?
Answer: > 100 µM

Question: What about the TGI (PC-3 prostate) of the same compound?
Answer: 74.9 µM

Question: What about the TGI (UACC-62 melanoma) of the same compound?
Answer: > 100 µM

Question: What about the TGI (SNB-75 CNS) of the same compound?
Answer: 51.9 µM

Question: And the TGI (HCT-116 colon)?
Answer: 40.7 µM

Question: And the TGI (OVCAR-3 ovarian)?
Answer: 34.4 µM

Question: And the TGI (MDA-MB-231 breast)?
Answer: 43.7 µM

Question: What about the TGI (HOP-62 NSCLC) of the same compound?
Answer: 85.7 µM

Question: What about the TGI (SF-268 CNS) of the same compound?
Answer: 82.1 µM

Question: What about the TGI (SF-295 CNS) of the same compound?
Answer: 48.2 µM
